Measured values as given in article PMC11995724, “Antibiotic target discovery by integrated phenotypic and activity-based profiling of electrophilic fragments” (Cell chemical biology, 2025).
Counter-ions that a name gives are not always drawn.

Assay: in vitro
Conditions: human, hek293t cells

Row | SMILES | viability at 48 h, 25 µM
1 | CCC(NC(=O)CCl)c1cccc(OC)n1 (stereo not drawn) [7-D08, 2-chloro-N-[1-(6-methoxypyridin-2-yl)propyl]acetamide] | 1.69%
2 | CC(Cl)C(=O)NCCc1nnc2n1CCCCC2 (stereo not drawn) [7-D09, 2-chloro-N-(2-{5H,6H,7H,8H,9H-[1,2,4]triazolo[4,3-a]azepin-3-yl}ethyl)propanamide] | 101%
3 | COC1(OC)CCOCC1NC(=O)CCl (stereo not drawn) [7-D10, 2-chloro-N-(4,4-dimethoxyoxan-3-yl)acetamide] | 19.1%
4 | Cc1nnc(C(C)NC(=O)C(C)Cl)s1 (stereo not drawn) [7-D11, 2-chloro-N-[1-(5-methyl-1,3,4-thiadiazol-2-yl)ethyl]propanamide] | 104%
5 | O=C(CCl)N[C@H]1C[C@H](c2ccccc2)C1 [7-D12, 2-chloro-N-[(1r,3r)-3-phenylcyclobutyl]acetamide] | 0.742%
6 | CC(Cl)C(=O)N1CCN(c2oc(-c3ccco3)nc2C#N)CC1 (stereo not drawn) [7-D13, 5-[4-(2-chloropropanoyl)piperazin-1-yl]-2-(furan-2-yl)-1,3-oxazole-4-carbonitrile] | 85%
7 | CSc1ccccc1CC(C)NC(=O)CCl (stereo not drawn) [7-D14, 2-chloro-N-{1-[2-(methylsulfanyl)phenyl]propan-2-yl}acetamide] | 1.59%
8 | CC(Cl)C(=O)N1CCCCC1c1nc(-c2ncccn2)no1 (stereo not drawn) [7-D15, 2-chloro-1-{2-[3-(pyrimidin-2-yl)-1,2,4-oxadiazol-5-yl]piperidin-1-yl}propan-1-one] | 85.8%
9 | O=C(CCl)NC(c1ccc(F)c(Cl)c1)C(F)(F)F (stereo not drawn) [7-D16, 2-chloro-N-[1-(3-chloro-4-fluorophenyl)-2,2,2-trifluoroethyl]acetamide] | 0.544%
10 | CC(Cl)C(=O)N1CCn2c(cc3c(Cl)cccc32)C1 (stereo not drawn) [7-D17, 2-chloro-1-{9-chloro-1H,2H,3H,4H-pyrazino[1,2-a]indol-2-yl}propan-1-one] | 55.6%
11 | O=C(CN(CC1CCCO1)C(=O)CCl)N1CCCC1 (stereo not drawn) [7-D18, 2-chloro-N-[2-oxo-2-(pyrrolidin-1-yl)ethyl]-N-[(oxolan-2-yl)methyl]acetamide] | 99.8%
12 | Cc1cc(C2CCCN2C(=O)C(C)Cl)no1 (stereo not drawn) [7-D19, 2-chloro-1-[2-(5-methyl-1,2-oxazol-3-yl)pyrrolidin-1-yl]propan-1-one] | 88.5%
13 | CC(NC(=O)CCl)C(c1ccccc1Cl)n1cccn1 (stereo not drawn) [7-D20, 2-chloro-N-[1-(2-chlorophenyl)-1-(1H-pyrazol-1-yl)propan-2-yl]acetamide] | 1.01%
14 | CC(Cl)C(=O)NCc1ccc2cnn(C)c2c1 (stereo not drawn) [7-D21, 2-chloro-N-[(1-methyl-1H-indazol-6-yl)methyl]propanamide] | 87.7%
15 | O=C(CCl)NCc1ccc(Cl)c(C(F)(F)F)c1 [7-D22, 2-chloro-N-{[4-chloro-3-(trifluoromethyl)phenyl]methyl}acetamide] | 0.676%
16 | CC(Cl)C(=O)NCCc1nnc(C(C)C)s1 (stereo not drawn) [7-E03, 2-chloro-N-{2-[5-(propan-2-yl)-1,3,4-thiadiazol-2-yl]ethyl}propanamide] | 123%
17 | COc1ccc2c(c1)OCCN(C(=O)C(C)Cl)C2 (stereo not drawn) [7-E04, 2-chloro-1-(8-methoxy-2,3,4,5-tetrahydro-1,4-benzoxazepin-4-yl)propan-1-one] | 122%
18 | CC(Cl)C(=O)N(Cc1nc(C2CCCCCC2)no1)C1CC1 (stereo not drawn) [7-E05, 2-chloro-N-[(3-cycloheptyl-1,2,4-oxadiazol-5-yl)methyl]-N-cyclopropylpropanamide] | 78.1%
19 | CC(Cl)C(=O)NC1CCc2ccccc2-n2ccnc21 (stereo not drawn) [7-E06, 2-chloro-N-{2,5-diazatricyclo[8.4.0.0,2,6]tetradeca-1(14),3,5,10,12-pentaen-7-yl}propanamide] | 88.2%
20 | CC(Cl)C(=O)N1CCN(C(=O)c2ccc3ccccc3c2)CC1 (stereo not drawn) [7-E07, 2-chloro-1-[4-(naphthalene-2-carbonyl)piperazin-1-yl]propan-1-one] | 96.2%
21 | COc1ccc2ccccc2c1-c1cc(CNC(=O)C(C)Cl)on1 (stereo not drawn) [7-E08, 2-chloro-N-{[3-(2-methoxynaphthalen-1-yl)-1,2-oxazol-5-yl]methyl}propanamide] | 87.9%
22 | Cc1csc(CN(CC2CCCO2)C(=O)C(C)Cl)n1 (stereo not drawn) [7-E09, 2-chloro-N-[(4-methyl-1,3-thiazol-2-yl)methyl]-N-[(oxolan-2-yl)methyl]propanamide] | 94.1%
23 | Cc1noc(C23CC(CN2C(=O)C(C)Cl)C3)n1 (stereo not drawn) [7-E10, 2-chloro-1-[1-(3-methyl-1,2,4-oxadiazol-5-yl)-2-azabicyclo[2.1.1]hexan-2-yl]propan-1-one] | 93.2%
24 | CC(Cl)C(=O)N1CCn2cccc2C1c1ccccc1 (stereo not drawn) [7-E11, 2-chloro-1-{1-phenyl-1H,2H,3H,4H-pyrrolo[1,2-a]pyrazin-2-yl}propan-1-one] | 97.1%
25 | CC(Cl)C(=O)NC(Cc1ccccc1)c1ncco1 (stereo not drawn) [7-E12, 2-chloro-N-[1-(1,3-oxazol-2-yl)-2-phenylethyl]propanamide] | 84.4%
26 | CC(Cl)C(=O)NC1CCN(CC(=O)Nc2ccccc2)CC1 (stereo not drawn) [7-E13, 2-chloro-N-{1-[(phenylcarbamoyl)methyl]piperidin-4-yl}propanamide] | 85.2%

Row | SMILES | viability at 48 h, 25 µM
27 | CC(Cl)C(=O)N(Cc1cccs1)[C@@H]1C=C[C@H](CO)C1 (stereo partly drawn) [7-E14, 2-chloro-N-[(1S,4R)-4-(hydroxymethyl)cyclopent-2-en-1-yl]-N-[(thiophen-2-yl)methyl]propanamide] | 87.9%
28 | CC(Cl)C(=O)NC(C)(C)c1cccc(Cl)c1F (stereo not drawn) [7-E15, 2-chloro-N-[2-(3-chloro-2-fluorophenyl)propan-2-yl]propanamide] | 91.2%
29 | CC(Cl)C(=O)NC1c2cc(F)ccc2CC1C (stereo not drawn) [7-E16, 2-chloro-N-(6-fluoro-2-methyl-2,3-dihydro-1H-inden-1-yl)propanamide] | 74.7%
30 | CC(Cl)C(=O)NCCC1(C)OCCO1 (stereo not drawn) [7-E17, 2-chloro-N-[2-(2-methyl-1,3-dioxolan-2-yl)ethyl]propanamide] | 82.4%
31 | CC(Cl)C(=O)N1CCC(N(C)Cc2cc(=O)[nH]c(N(C)C)n2)C1 (stereo not drawn) [7-E18, 6-({[1-(2-chloropropanoyl)pyrrolidin-3-yl](methyl)amino}methyl)-2-(dimethylamino)-3,4-dihydropyrimidin-4-one] | 72.3%
32 | CC(Cl)C(=O)N1CCCC1Cc1cccc(F)c1F (stereo not drawn) [7-E19, 2-chloro-1-{2-[(2,3-difluorophenyl)methyl]pyrrolidin-1-yl}propan-1-one] | 61.3%
33 | CC(Cl)C(=O)N1CCN(C(=O)Cc2cccc(Cl)c2)C(C)C1 (stereo not drawn) [7-E20, 2-chloro-1-{4-[2-(3-chlorophenyl)acetyl]-3-methylpiperazin-1-yl}propan-1-one] | 65.1%
34 | CC(Cl)C(=O)NCCNC(=O)c1ccoc1 (stereo not drawn) [7-E21, 2-chloro-N-{2-[(furan-3-yl)formamido]ethyl}propanamide] | 90.5%
35 | CC1CN(C(=O)c2ccc(NC(=O)C(C)Cl)cc2)CC(C)O1 (stereo not drawn) [7-E22, 2-chloro-N-[4-(2,6-dimethylmorpholine-4-carbonyl)phenyl]propanamide] | 79.1%
36 | O=C(CCl)NC(c1ccccc1)C1CC1c1ccncc1 (stereo not drawn) [7-F03, 2-chloro-N-{phenyl[2-(pyridin-4-yl)cyclopropyl]methyl}acetamide hydrochloride] | 0.921%
37 | Cc1cccc(Cl)c1CCCNC(=O)CCl [7-F04, 2-chloro-N-[3-(2-chloro-6-methylphenyl)propyl]acetamide] | 0.614%
38 | CC(Cl)C(=O)NCCN(C)S(=O)(=O)c1cccs1 (stereo not drawn) [7-F05, 2-chloro-N-[2-(N-methylthiophene-2-sulfonamido)ethyl]propanamide] | 97.9%
39 | CC(CO)(Cc1ccc(F)cc1)NC(=O)CCl (stereo not drawn) [7-F06, 2-chloro-N-{2-[(4-fluorophenyl)methyl]-1-hydroxypropan-2-yl}acetamide] | 3.71%
40 | CCC1CN(CCn2cccn2)CCN1C(=O)C(C)Cl (stereo not drawn) [7-F07, 2-chloro-1-{2-ethyl-4-[2-(1H-pyrazol-1-yl)ethyl]piperazin-1-yl}propan-1-one] | 98.7%
41 | Cc1nc(C(NC(=O)CCl)c2ccccc2)no1 (stereo not drawn) [7-F08, 2-chloro-N-[(5-methyl-1,2,4-oxadiazol-3-yl)(phenyl)methyl]acetamide] | 1.04%
42 | CC(Cl)C(=O)NCCc1nc(C2CCCCC2)cs1 (stereo not drawn) [7-F09, 2-chloro-N-[2-(4-cyclohexyl-1,3-thiazol-2-yl)ethyl]propanamide] | 84.8%
43 | O=C(CCl)NC1COc2ncccc21 (stereo not drawn) [7-F10, 2-chloro-N-{2H,3H-furo[2,3-b]pyridin-3-yl}acetamide] | 53.7%
44 | CC(Cl)C(=O)N1Cc2ccccc2OCC1C (stereo not drawn) [7-F11, 2-chloro-1-(3-methyl-2,3,4,5-tetrahydro-1,4-benzoxazepin-4-yl)propan-1-one] | 86.6%
45 | Cc1nc2n(n1)CCCC2NC(=O)CCl (stereo not drawn) [7-F12, 2-chloro-N-{2-methyl-5H,6H,7H,8H-[1,2,4]triazolo[1,5-a]pyridin-8-yl}acetamide] | 58.1%
46 | CC(Cl)C(=O)N1CCN(Cc2cnn(-c3ccccc3)c2)CC1 (stereo not drawn) [7-F13, 2-chloro-1-{4-[(1-phenyl-1H-pyrazol-4-yl)methyl]piperazin-1-yl}propan-1-one] | 93%
47 | CC(c1ccc(C(F)(F)F)c(Cl)c1)N(C)C(=O)CCl (stereo not drawn) [7-F14, 2-chloro-N-{1-[3-chloro-4-(trifluoromethyl)phenyl]ethyl}-N-methylacetamide] | 0.626%
48 | Cc1cc(C)n(C2CN(C(=O)C(C)Cl)C2)n1 (stereo not drawn) [7-F15, 2-chloro-1-[3-(3,5-dimethyl-1H-pyrazol-1-yl)azetidin-1-yl]propan-1-one] | 85.3%
49 | C[C@@H](NC(=O)CCl)c1cnnn1C [7-F16, 2-chloro-N-[(1R)-1-(1-methyl-1H-1,2,3-triazol-5-yl)ethyl]acetamide] | 44.8%
50 | CC(Cl)C(=O)NC1CCCCC1n1cccn1 (stereo not drawn) [7-F17, 2-chloro-N-[2-(1H-pyrazol-1-yl)cyclohexyl]propanamide] | 97.9%
51 | Cc1ccc(C)n1C1CCC(NC(=O)CCl)CC1 (stereo not drawn) [7-F18, 2-chloro-N-[4-(2,5-dimethyl-1H-pyrrol-1-yl)cyclohexyl]acetamide] | 106%
